This is an account of results in US20250154170A1, “FUSED PYRIMIDINES AS KRAS INHIBITORS” (priority 2022, published 2025).

Test [1] deals with K-Ras G12D (Homo sapiens, UniProt P01116, G12D). In words: K-Ras G12D activation by SOS1 (KRAS G12D activation by SOS1cat assay, HTRF). It is filed as biochemical. Conditions: mean, SOS1cat mediated loading of GST-KRAS G12D-GDP with fluorescent GTP analogue, read-out: K-Ras G12D activation by SOS1 IC50 - [mol/l] (mean). As for the experimental part: (§1) Preparation of test compound dilutions. A 100-fold concentrated solution of the test compound (50 nL) in DMSO was transferred to microtiter test plates (384 or 1,536 wells, Greiner Bio-One, Germany) using either a Hummingbird liquid handler (Digilab, MA, USA) or an Echo acoustic system (Labcyte, CA, USA). Plates were sealed with adhesive foil or heat-sealed and stored at −20 C until use. Serial dilutions of test compounds were prepared in 100% DMSO using a Precision Pipetting System (BioTek, USA).
(§2) Measurement and evaluation of inhibition data, calculation of IC50 values. Homogeneous time-resolved fluorescence (HTRF) was measured with a PHERAstar reader (BMG, Germany) using the HTRF module (excitation: 337 nm; emission 1: 620 nm, emission 2: 665 nm). The ratio of the emissions at 665 and 620 nm was used as the specific signal for further evaluation. The data were normalized using the controls: DMSO=0% inhibition, inhibition control wells with inhibitor control solution=100% inhibition. Compounds were tested in duplicates at up to 11 concentrations (e.g. 20 μM, 5.7 μM, 1.6 μM, 0.47 μM, 0.13 μM, 38 nM, 11 nM, 3.1 nM, 0.89 nM, 0.25 nM and 0.073 nM). IC50 values were calculated using a four-parameter fit, with a commercial software package (Genedata Screener, Switzerland).
(§3) KRAS^G12C activation by SOS1^cat assay (“On-assay”). This assay quantifies SOS1^cat mediated loading of KRAS^G12C-GDP with a fluorescent GTP analogue. Detection of successful loading was achieved by measuring resonance energy transfer from anti-GST-terbium (FRET donor) bound to GST-KRAS^G12C to the loaded fluorescent GTP analogue (FRET acceptor). The fluorescent GTP analogue EDA-GTP-DY-647P1 [2′/3′-O-(2-aminoethyl-carbamoyl)guanosine-5′-triphosphate labelled with DY-647P1 (Dyomics GmbH, Germany)] was synthesized by Jena Bioscience (Germany) and supplied as a 1 mM aqueous solution. A KRAS^G12C working solution was prepared in assay buffer [10 mM HEPES pH 7.4 (AppliChem), 150 mM NaCl (Sigma), 5 mM MgCl2 (Sigma), 1 mM DTT (Thermo Fisher), 0.05% BSA Fraction V pH 7.0 (ICN Biomedicals), 0.0025% (v/v) Igepal (Sigma)] containing GST-KRAS^G12C (final concentration in assay 50 nM) and anti-GST-terbium (Cisbio, France) (final concentration in assay 1 nM). A SOS1^cat working solution was prepared in assay buffer containing SOS1^cat (final concentration 10 nM) and EDA-GTP-DY-647P1 (final concentration 100 nM). An inhibitor control solution was prepared in assay buffer containing EDA-GTP-DY-647P1 (final concentration 100 nM) without SOS1^cat. All steps of the assay were performed at 20° C. A volume of 3 μL of the KRAS^G12C working solution was added to all wells of the test plate using a Multidrop dispenser (Thermo LabSystems). After 15 min, 2 μL of the SOS1^ct working solution was added to all wells, except for the inhibitor control solution wells. After 30 min incubation, HTRF was measured.
(§4) G12D and Wild-type KRAS activation by SOS1cat assays. These assays quantify human SOS1^cat mediated loading of wild-type GST-KRAS^WT-GDP or GST-KRAS^G12D-GDP with a fluorescent GTP analogue. The assay was performed similarly to the KRAS^G12C activation by SOS1^cat assay with the following differences: final concentration of SOS1^cat of 60 nM and final incubation time before measurement of 10 min for KRAS^G12D assay, final concentration of SOS1^cat of 20 nM and final incubation time before measurement of 15 min for wild-type KRAS assay, respectively. GST-KRAS^G12C was replaced by GST-KRAS^WT or GST-KRAS^G12D, respectively, also at 50 nM final concentration.
KRAS^G12D activation by SOS1^cat assay (“On-assay”). This assay quantifies SOS1^cat mediated loading of KRAS^G12D-GDP with a fluorescent GTP analogue. Detection of successful loading was achieved by measuring resonance energy transfer from anti-GST-terbium (FRET donor) bound to GST-KRAS^G12D to the loaded fluorescent GTP analogue (FRET acceptor).

Test [2] deals with K-Ras-wildtype (Homo sapiens, UniProt P01116). In words: K-Ras-wildtype activation by SOS1 (wild-type KRAS activation by SOS1cat assay, HTRF). It is filed as biochemical. The conditions noted are these: mean, SOS1cat mediated loading of wild-type GST-KRAS-GDP with fluorescent GTP analogue, read-out: K-Ras-wildtype activation by SOS1 IC50 - [mol/l] (mean). As for the experimental part: as §1, §2, §3, §4
Wild-type KRAS activation by SOS1^cat assay. This assay quantifies human SOS1^cat mediated loading of wild-type GST-KRAS-GDP with a fluorescent GTP analogue. The assay was performed similarly to the KRAS^G12D activation by SOS1^cat assay just by replacement of GST-KRAS^G12D by wild-type GST-KRAS while concentrations of all components and incubation times were the same.
For orientation: TR-FRET usually uses a lanthanide donor and a delayed reading to cut background.

Where “and” joins values, the source holds several entries; their conditions need not be identical. Identical values can stand only once.

Chain of K-Ras-wildtype (P01116 1-188 isoform P01116-2): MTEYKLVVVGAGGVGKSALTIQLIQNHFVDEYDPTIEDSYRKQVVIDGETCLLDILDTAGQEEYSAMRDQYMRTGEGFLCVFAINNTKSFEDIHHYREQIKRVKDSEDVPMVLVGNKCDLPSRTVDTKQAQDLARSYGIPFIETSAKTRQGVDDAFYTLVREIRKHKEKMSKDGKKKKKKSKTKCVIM
Chain of K-Ras G12D (P01116 1-188 isoform P01116-2 G12D): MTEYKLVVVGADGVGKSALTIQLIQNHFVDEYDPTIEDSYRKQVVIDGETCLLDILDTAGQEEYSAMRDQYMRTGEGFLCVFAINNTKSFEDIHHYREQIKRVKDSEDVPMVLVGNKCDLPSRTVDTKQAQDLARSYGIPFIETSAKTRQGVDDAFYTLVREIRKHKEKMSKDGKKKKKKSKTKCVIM

For `C#Cc1cccc2cc(O)cc(N(C)c3nc4c(N5CC6CCC(C5)N6)nc(OC[C@@]56CCCN5C[C@H](F)C6)nc4s3)c12` [Example 31, 4-{[7-(3,8-diazabicyclo[3.2.1]octan-3-yl)-5-{[(2R,7aS)-2-fluorotetrahydro-1H-pyrrolizin-7a(5H)-yl]methoxy}[1,3]thiazolo[5,4-d]pyrimidin-2-yl](methyl)amino}-5-ethynylnaphthalen-2-ol], the IC50 was 4.42 nM in test [1] and 61.5 nM in test [2].
The corresponding values for `C#Cc1cccc2cc(O)cc(Oc3nc4c(N5CC6CCC(C5)N6)nc(OCC56CCCN5CCC6)nc4s3)c12` [Example 2, 4-{[7-(3,8-diazabicyclo[3.2.1]octan-3-yl)-5-(tetrahydro-1H-pyrrolizin-7a(5H)-ylmethoxy)[1,3]thiazolo[5,4-d]pyrimidin-2-yl]oxy}-5-ethynyl-2-naphthol] are 5.55 nM and 126 nM.
Regarding `Cn1c(Oc2cc(O)cc3cccc(F)c23)nc2c(N3CC4CCC(C3)N4)nc(OCC34CCCN3CCC4)nc21` [Example 8, 4-({6-(3,8-diazabicyclo[3.2.1]octan-3-yl)-9-methyl-2-[(tetrahydro-1H-pyrrolizin-7a(5H)-yl)methoxy]-9H-purin-8-yl}oxy)-5-fluoronaphthalen-2-ol], the IC50 in test [1] and in test [2] was > 20000 nM throughout.
In the case of `C#Cc1c(F)ccc2cc(O)cc(Oc3nc4c(N5C[C@H]6CC(F)[C@@H](C5)N6)nc(OC[C@@]56CCCN5C[C@H](F)C6)nc4s3)c12` (single isomer, unassigned) [Example 26, 5-Ethynyl-6-fluoro-4-[(7-[(1R*,5R*)-6-fluoro-3,8-diazabicyclo[3.2.1]octan-3-yl]-5-{[(2R,7aS)-2-fluorotetrahydro-1H-pyrrolizin-7a(5H)-yl]methoxy}[1,3]thiazolo[5,4-d]pyrimidin-2-yl)oxy]naphthalen-2-ol], the IC50 in test [1] worked out at 26.3 nM; in test [2], 25.9 nM.
Consider `C#Cc1c(F)ccc2cc(O)cc(Oc3nc4c(N5CC6CCC(C5)N6)nc(OC[C@@]56CCCN5CC(F)C6)nc4s3)c12` (stereo in doubt) [Example 6, 4-{[7-(3,8-diazabicyclo[3.2.1]octan-3-yl)-5-{[(2R,7aS)-2-fluorotetrahydro-1H-pyrrolizin-7a(5H)-yl]methoxy}[1,3]thiazolo[5,4-d]pyrimidin-2-yl]oxy}-5-ethynyl-6-fluoronaphthalen-2-ol], for which the IC50 in test [1] is 1.86 nM and 2.18 nM; in test [2] it was 32.8 nM and 33.1 nM.
On to `C#Cc1c(F)ccc2cc(O)cc(Oc3nc4nc(OCC56CCCN5CCC6)nc(N5CC6CCC(C5)N6)c4n3C)c12` [Example 22, 4-({6-(3,8-diazabicyclo[3.2.1]octan-3-yl)-7-methyl-2-[(tetrahydro-1H-pyrrolizin-7a(5H)-yl)methoxy]-7H-purin-8-yl}oxy)-5-ethynyl-6-fluoronaphthalen-2-ol], for which the IC50 is 89.5 nM in test [1] and > 20000 nM in test [2].
As for `Oc1cc(Oc2nc3c(N4CC5CCC(C4)N5)nc(OCC45CCCN4CCC5)nc3[nH]2)c2c(F)cccc2c1` [Example 11, 4-({6-(3,8-diazabicyclo[3.2.1]octan-3-yl)-2-[(tetrahydro-1H-pyrrolizin-7a(5H)-yl)methoxy]-9H-purin-8-yl}oxy)-5-fluoronaphthalen-2-ol], the IC50 in test [1] and in test [2] was > 20000 nM in each case.
For `Cc1cccc2cc(O)cc(Oc3nc4c(N5CC6CCC(C5)N6)nc(OCC56CCCN5CCC6)nc4s3)c12` [Example 4, 4-({7-(3,8-diazabicyclo[3.2.1]octan-3-yl)-5-[(tetrahydro-1H-pyrrolizin-7a(5H)-yl)methoxy][1,3]thiazolo[5,4-d]pyrimidin-2-yl}oxy)-5-methylnaphthalen-2-ol], the IC50 in test [1] turned out to be 79.8 nM; in test [2], 1550 nM.
As for `Oc1cc(Nc2nc3c(N4CC5CCC(C4)N5)nc(OC[C@@]45CCCN4C[C@H](F)C5)nc3s2)c2ccccc2c1` [Example 28, 4-{[7-(3,8-diazabicyclo[3.2.1]octan-3-yl)-5-{[(2R,7aS)-2-fluorotetrahydro-1H-pyrrolizin-7a(5H)-yl]methoxy}[1,3]thiazolo[5,4-d]pyrimidin-2-yl]amino}naphthalen-2-ol], the values for the IC50 in test [1] and in test [2] were 1410 nM and > 20000 nM, respectively.
The like results for `Oc1cc(Nc2nc3c(N4CC5COCC(C4)N5)nc(OC[C@@]45CCCN4C[C@H](F)C5)nc3s2)c2ccccc2c1` [Example 30, 4-{[5-{[(2R,7aS)-2-fluorotetrahydro-1H-pyrrolizin-7a(5H)-yl]methoxy}-7-(3-oxa-7,9-diazabicyclo[3.3.1]nonan-7-yl) [1,3]thiazolo[5,4-d]pyrimidin-2-yl]amino}-2-naphthol] were, in that order, 10600 nM and 7610 nM.
The corresponding values for `Oc1cc(Oc2nc3c(N4CC5CCC(C4)N5)nc(OCC45CCCN4CCC5)nc3s2)c2c(Cl)cccc2c1` [Example 15, Formic acid-5-Chlor-4-{[7-(3,8-diazabicyclo[3.2.1]octan-3-yl)-5-(tetrahydro-1H-pyrrolizin-7a(5H)-ylmethoxy)[1,3]thiazolo[5,4-d]pyrimidin-2-yl]oxy}-2-naphthol (2:1)] are 35.3 nM and 1070 nM.
With `C#Cc1c(F)ccc2cc(O)cc(Cc3nc4c(N5CC6CCC(C5)N6)nc(OC[C@@]56CCCN5C[C@H](F)C6)nc4s3)c12` [Example 32, 4-{[7-(3,8-diazabicyclo[3.2.1]octan-3-yl)-5-{[(2R,7aS)-2-fluorotetrahydro-1H-pyrrolizin-7a(5H)-yl]methoxy}[1,3]thiazolo[5,4-d]pyrimidin-2-yl]methyl}-5-ethynyl-6-fluoronaphthalen-2-ol], the figures for the IC50 in test [1] and in test [2] were 3.95 nM and 99.8 nM, respectively.
The corresponding values for `Cn1c(Oc2cc(O)cc3ccccc23)nc2nc(OCC34CCCN3CCC4)nc(N3CC4CCC(C3)N4)c21` [Example 18, 4-({6-(3,8-diazabicyclo[3.2.1]octan-3-yl)-7-methyl-2-[(tetrahydro-1H-pyrrolizin-7a(5H)-yl)methoxy]-7H-purin-8-yl}oxy)naphthalen-2-ol] are 15300 nM and > 20000 nM.
Regarding `C#Cc1c(F)ccc2cc(O)cc(Oc3nc4c(N5CC6COCC(C5)N6)nc(OCC56CCCN5CCC6)nc4s3)c12` [Example 13, 5-ethynyl-6-fluoro-4-({7-(3-oxa-7,9-diazabicyclo[3.3.1]nonan-7-yl)-5-[(tetrahydro-1H-pyrrolizin-7a(5H)-yl)methoxy][1,3]thiazolo[5,4-d]pyrimidin-2-yl}oxy)naphthalen-2-ol], the figures for the IC50 in test [1] and in test [2] were 25.6 nM and 15.3 nM, respectively.
Regarding `Cn1c(Oc2cc(O)cc3ccccc23)nc2c(N3CC4CCC(C3)N4)nc(OCC34CCCN3CCC4)nc21` [Example 9, 4-({6-(3,8-diazabicyclo[3.2.1]octan-3-yl)-9-methyl-2-[(tetrahydro-1H-pyrrolizin-7a(5H)-yl)methoxy]-9H-purin-8-yl}oxy)naphthalen-2-ol], the IC50 in test [1] and in test [2] was > 20000 nM in each case.
